Earlier results on ten molecules are cited in patent US7970581B2, “Methods of calculating differences of binding affinities between congeneric pairs of ligands by way of a displaced solvent functional” (The Trustees of Columbia University in the City of New York, priority 2007, dated 2011).

The series addresses factor Xa (Homo sapiens, UniProt P00742). The following applies: experimental binding free energy of crystal structure ligand.

Sequence of factor Xa (P00742 235-488 limits assumed): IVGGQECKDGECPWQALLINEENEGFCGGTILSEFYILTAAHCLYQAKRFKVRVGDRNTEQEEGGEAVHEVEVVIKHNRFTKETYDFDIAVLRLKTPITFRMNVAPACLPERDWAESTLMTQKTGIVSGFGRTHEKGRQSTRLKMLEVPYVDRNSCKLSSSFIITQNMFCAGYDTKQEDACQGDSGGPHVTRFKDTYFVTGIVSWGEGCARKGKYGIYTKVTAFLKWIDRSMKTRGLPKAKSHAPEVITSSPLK
Sequence of factor Xa (P00742 41-179 partner limits assumed): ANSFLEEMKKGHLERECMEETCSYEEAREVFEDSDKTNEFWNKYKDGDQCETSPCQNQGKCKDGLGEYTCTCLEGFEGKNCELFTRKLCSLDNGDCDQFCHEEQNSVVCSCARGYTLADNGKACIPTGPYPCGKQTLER

As to `CCOC(=O)CO/N=C(\c1ccccn1)C1(c2ccc3c(c2)nc(CNc2ccc(C(=N)N)cc2)n3C)CC1` [1G2L:T87], the ΔGexp is -9.88 kcal/mol.

In the case of `Cc1nc2ccccc2n1Cc1ccc2c(c1)nc(CNc1ccc(C(=N)N)cc1)n2C` [1G2M:R11], the ΔGexp was -10.09 kcal/mol. Turning to `Cc1cc(C)cc(CNC(=O)c2cc3c(C)cccc3n2Cc2cccc(C(=N)N)c2)c1` [1LQD:CMI], the ΔGexp was -10.98 kcal/mol. Turning to `CN1CCN(Cc2csc(C(=O)Nc3ccc(Cl)cc3C(=O)Nc3ccc(Cl)cc3)c2Cl)CC1` [1MQ5:XLC], the ΔGexp was -12.28 kcal/mol.

On to `COc1cc(Cl)cc(C(=O)Nc2ccc(Cl)cn2)c1NC(=O)c1scc(C/[N+](C)=C2\NCCO2)c1Cl` [1MQ6:XLD], for which the ΔGexp is -15.22 kcal/mol. Turning to `N=C(N)c1ccc(CN2CCN(S(=O)(=O)c3cc4ccc(Cl)cc4s3)CC2=O)cc1` [1NFY:RTR], the ΔGexp is -12.12 kcal/mol. As for `COc1ccc(C(=O)NCC2CCN(c3ccncc3)CC2)cc1OCCc1cc(Cl)cc(Cl)c1` [2BMG:I1H], the ΔGexp is -10.57 kcal/mol. On to `CC(C)N1CCC(NC(=O)c2cc3ccccc3n2-c2cc(-c3ccc(Cl)s3)on2)CC1` [2BOH:IIA], for which the ΔGexp is -11.63 kcal/mol. Take `COc1cccc(Cn2c(C(=O)NC3CCN(C(C)C)CC3)cc3ccccc32)c1` [2BQ7:IID]: the ΔGexp was -9.62 kcal/mol.

In the case of `CC(C)N1CCC(NC(=O)c2cc3ccccc3n2CC(=O)Nc2ccc(Cl)cc2)CC1` [2BQW:IIE], the ΔGexp was -11.63 kcal/mol.
